Measured values from US20260083743A1, “NUCLEOSIDE DERIVATIVE FOR PREVENTING AND TREATING INFLAMMATION AND APPLICATION THEREOF” (WEST CHINA HOSPITAL OF SICHUAN UNIVERSITY, priority 2019, published 2026).

system: sodium taurocholate-induced pancreatitis model; assay: Improvement effect on pancreatitis, sodium taurocholate-induced model in mice; type: in vivo, Blab/c mice; set-up: Pancreatic histopathological injury score: scale not given here; details: 17.5 mg/kg caudal vein 1 h, 3 h and 6 h after model construction; after 24 hours; n = 10
Text: In this example, the improvement effect of compounds 1 19 prepared in example 1 on […] measured. (1) Animals: Adult and Healthy Male Blab/c Mice, 25 30 g. […] A model was made with sodium taurocholate. […] After anesthesia, the surgical site was sterilized with an alcohol cotton ball. The sterile gauze was placed on the surgical site. A laparotomy was made at the width of two fingers under the xiphoid process. After seeing the liver, an incision was made, the cotton swab soaked in normal saline was stretched into the enterocoelia, the duodenum was sought on the back of the liver, turned out and placed on the sterile gauze, the pancreaticobiliary duct and duodenal papilla were sought, and the needle of 1 mL syringe was used to pierce a hole on the along the direction of the nipple, a 24 G indwelling needle tube was inserted into the pancreatic duct along the nipple, and the common bile duct below the liver was closed with an arterial vascular clip, with a dose of 0.1 mL/100 g and 0.1 mL/min inject sodium taurocholate with a concentration of 3.8% at a flow rate. During this process, pay attention to adding saline to the exposed pancreas and duodenum to keep it moist. After the injection, the tube was slowly taken out and the bile duct was continued to be closed. The main tube was removed from the vascular artery clip 3 minutes later, the duodenum was also accommodated, and the abdominal cavity was sutured in double layers. The blank control group was injected with equal volume of isotonic saline. […] The blank control group and the model control group were given equal volume of isotonic saline. After 24 hours, pancreatic tissue and blood samples were taken, and the pancreatic histopathological injury score and the level of pancreatic amylase in serum were evaluated.

Structure (SMILES)	Amylopsin (pancreatic amylase level in serum)	Pancreatic histopathological injury score
CCCC(=O)CCn1c(=O)c2c(ncn2C)n(C)c1=O [Compound 18, 1-(2-butyrylethyl)-3,7-dimethylxanthine]	9 ± 2 KU/L	1.3 ± 0.4
CC(C)n1c(=O)[nH]cc(F)c1=O [Compound 19, 3-isopropyl-5-fluorouracil]	8 ± 2 KU/L	1.0 ± 0.3

system: arthritis model; assay: Improvement effect on arthritis, sodium iodoacetate knee joint model in SD rats; type: in vivo; set-up: Pathological tissue score (joint): scale not given here; details: gavage every day 100 mg/kg/d; 4th week after operation; n = 10
Protocol: In this example, the improvement effect of compounds 1˜19 prepared in example 1 on arthritic was measured. (1) Animals: SD rats, four rates in one cage, were fed under the conditions of constant temperature (25±2° C.) and illumination control (12 h day/night circulation). The animals were fed with standard feed, and fed for at least 7 days to adapt environment before the experiment. […] (3) SD rats were fasted for 12 hours before operation, and weighed and recorded prior to operation. The blank control group was not treated any more. […] After anesthesia, they were fixed in the supine position. 0.1 ml of 1 g/L sodium iodoacetate solution was injected into the knee joint. From the fifth day, the animals were driven to run for 30 minutes every day, and they were allowed to move freely in the cage the rest of the time. After modeling, indomethacin and compounds 1˜19 were given by gavage every day at the dose of 100 mg/kg/d. The blank control group and the model control group were given equal volume of isotonic saline. At the 4th week after operation, the articular fluid of rats in each group was extracted to measure the content of MMP-13. The rats were killed, and the subchondral bone plate of the inner condyle of the tibia of the right knee was cut and processed into specimens, and pathological scores were made.

Structure (SMILES)	MMP-13 content in joint fluid	Pathological tissue score (joint)
CCCC(=O)CCn1c(=O)c2c(ncn2C)n(C)c1=O [Compound 18, 1-(2-butyrylethyl)-3,7-dimethylxanthine]	91 ± 8 mg/L	0.5 ± 0.3
CC(C)n1c(=O)[nH]cc(F)c1=O [Compound 19, 3-isopropyl-5-fluorouracil]	89 ± 6 mg/L	0.3 ± 0.2

system: mouse hepatitis model; assay: Improvement effect on hepatitis, concanavalin A (ConA) mouse hepatitis model; type: in vivo, Blab/c mice; details: 6 h after administration; gavage 50 mg/kg; n = 10
Protocol: In this example, the improvement effect of compounds 1 19 prepared in example 1 on […] measured. (1) Animals: Adult and Healthy Male Blab/c Mice, 25 30 g. […] The blank control group was injected with equal volume of isotonic saline. After modeling, indomethacin and compounds 1 19 were given by gavage every day at the dose of 50 mg/kg. The blank control group and the model control group were given equal volume of isotonic saline. Eyeball blood and liver tissue were taken at 6 h, 12 h, 24 h and 48 h after administration. The levels of serum alanine aminotransferase (ALT) and aspartate aminotransferase (AST) were measured.

Structure (SMILES)	Aspartate aminotransferase (AST)	Serum alanine aminotransferase (ALT)
CCCC(=O)CCn1c(=O)c2c(ncn2C)n(C)c1=O [Compound 18, 1-(2-butyrylethyl)-3,7-dimethylxanthine]	54 ± 7 U/L	67 ± 8 U/L
CC(C)n1c(=O)[nH]cc(F)c1=O [Compound 19, 3-isopropyl-5-fluorouracil]	57 ± 7 U/L	55 ± 6 U/L

same assay, conditions: 12 h after administration; gavage 50 mg/kg; n = 10

Structure (SMILES)	Aspartate aminotransferase (AST)	Serum alanine aminotransferase (ALT)
CCCC(=O)CCn1c(=O)c2c(ncn2C)n(C)c1=O [Compound 18, 1-(2-butyrylethyl)-3,7-dimethylxanthine]	98 ± 8 U/L	106 ± 11 U/L
CC(C)n1c(=O)[nH]cc(F)c1=O [Compound 19, 3-isopropyl-5-fluorouracil]	92 ± 8 U/L	87 ± 6 U/L

same assay, conditions: 24 h after administration; gavage 50 mg/kg; n = 10

Structure (SMILES)	Aspartate aminotransferase (AST)	Serum alanine aminotransferase (ALT)
CCCC(=O)CCn1c(=O)c2c(ncn2C)n(C)c1=O [Compound 18, 1-(2-butyrylethyl)-3,7-dimethylxanthine]	131 ± 8 U/L	157 ± 15 U/L
CC(C)n1c(=O)[nH]cc(F)c1=O [Compound 19, 3-isopropyl-5-fluorouracil]	117 ± 9 U/L	139 ± 12 U/L

same assay, conditions: 48 h after administration; gavage 50 mg/kg; n = 10

Structure (SMILES)	Aspartate aminotransferase (AST)	Serum alanine aminotransferase (ALT)
CCCC(=O)CCn1c(=O)c2c(ncn2C)n(C)c1=O [Compound 18, 1-(2-butyrylethyl)-3,7-dimethylxanthine]	117 ± 9 U/L	121 ± 13 U/L
CC(C)n1c(=O)[nH]cc(F)c1=O [Compound 19, 3-isopropyl-5-fluorouracil]	101 ± 9 U/L	111 ± 13 U/L

system: C57 mice; assay: Toxicity test, 180 consecutive days by gavage in C57 mice; type: in vivo; details: 100 mg/kg/D for 180 consecutive days by gavage
Protocol: In this example, the toxicities of compounds 1-19 prepared in example 1 were analyzed.
C57 mice were given compounds 1-19 at a dose of 100 mg/kg/D for 180 consecutive days by gavage. One hour after the last administration of the drug, the mice were anesthetized by intraperitoneal injection of sodium pentobarbital (40 mg/kg), placed on a constant temperature hot plate at 37±1° C., blood was taken by cardiac puncture or pathological sections were made to detect the side effects (gastrointestinal reaction, nervous system toxicity, hematological toxicity, allergic reaction, nephrotoxicity, hepatotoxicity, rash and asthma) The side effects of aspirin, ibuprofen, indomethacin, phenylbutazone, diclofenac, piroxicam and glucocorticoid groups were investigated according to the same administration method as compounds 1-19.

Structure (SMILES)	Occurrence rate of side effects
CC(=O)Oc1ccccc1C(=O)O [Aspirin, aspirin]	20%
CCCCC1C(=O)N(c2ccccc2)N(c2ccccc2)C1=O [Baotaisong, phenylbutazone]	20%
O=C(O)Cc1ccccc1Nc1c(Cl)cccc1Cl [Diclofenac, diclofenac]	20%
CC(C)Cc1ccc(C(C)C(=O)O)cc1 (centres unmarked) [Ibuprofen, ibuprofen]	20%
CN1C(C(=O)Nc2ccccn2)=C(O)c2ccccc2S1(=O)=O [Piroxicam, piroxicam]	20%
